In ChEMBL document CHEMBL1159228, “The 1994 Japan-U.S. Seminar on Bioorganic Marine Chemistry, Meeting Report” (J Nat Prod, 1995):
Converted amounts (≈) assume the structure as drawn. Each block holds one compound with its values, some of them ahead of it.

Tests used:
[1] = Inhibition of inosine-5'-monophosphate dehydrogenase
L1210 = assay: Cytotoxicity against mouse L1210 cells; format: functional, cell-based
M5076 = assay: In vivo cytotoxicity against mouse M5076 cells relative to control; format: functional
[2] = In vivo cytotoxicity against mouse LLC cells relative to control; format: functional, Lewis lung carcinoma
B16 [3] = assay: In vivo cytotoxicity against mouse B16 cells relative to control; format: functional
P388 [4] = assay: In vivo cytotoxicity against mouse P388 cells relative to control; format: functional
P388 [5] = assay: In vivo cytotoxicity against mouse P388 cells at 80 ug/kg relative to control; format: functional
[6] = In vivo cytotoxicity against mouse EAC cells at 40 ug/kg relative to control; format: functional, Ehrlich
Colon 26 = assay: In vivo cytotoxicity against mouse Colon 26 cells at 80 ug/kg relative to control; format: functional
B16 [7] = assay: In vivo cytotoxicity against mouse B16 cells at 40 ug/kg relative to control; format: functional
[8] = In vivo cytotoxicity against mouse LLC cells at 40 ug/kg relative to control; format: functional, Lewis lung carcinoma
[9] = Molluscicidal activity against common snail; format: organism-based; settings: cornu aspersum, in vivo; read-out: LD50 (the source's name)
[10] = Ichthyotoxicity against Carassius auratus; format: organism-based; settings: in vivo
P388 [11] = assay: Cytotoxicity against mouse P388 cells; format: functional, cell-based

Structure (SMILES): Oc1c(Oc2c(O)c(Br)c(Br)c(Br)c2Br)cc(Br)c(Br)c1Br
IC50 [1]: 1000 µM

Structure (SMILES): C/C=C\[C@H](C)[C@@H]1O[C@]1(C)[C@@H](O)[C@@H](C)C(=O)[C@@H](CO)[C@@H](O)CC(=O)CC
IC50 (L1210): 100 ng/mL (≈ 281 nM)

Structure (SMILES): COc1c(C)cc2c(c1O)[C@@H]1[C@@H]3[C@H]4SCC(N)C(=O)OC[C@@H](c5c(O)c(OC)c(C)c(OC(C)=O)c54)N3[C@@H](O)[C@H](C2)N1C (stereo partly specified)
T/C (M5076): 210%
T/C [2]: 0%
T/C (B16 [3]): 241%
T/C (P388 [4]): 213%

Structure (SMILES): COc1c(C)cc2c(c1O)[C@@H]1[C@@H]3[C@H]4SCC(=O)C(=O)OC[C@@H](c5c(O)c(OC)c(C)c(OC(C)=O)c54)N3[C@@H](O)[C@H](C2)N1C
T/C (M5076): 210%
T/C [2]: 0%
T/C (B16 [3]): 241%
T/C (P388 [4]): 213%

IC50 [1]: 1000 µM
Structure (SMILES): C#CC(O)/C=C/CCCCCCCCC/C=C\CCCCCCCCCCCC/C=C\CC#CC(=O)O (stereo unspecified)

Structure (SMILES): C=C1C(O)CC(=O)C(C)/C=C(\C)C[C@@H](O)[C@]2(O)O[C@H](CC[C@H]2O)CC(O)CCC(O)C(CCCC)OC(=O)C(C)C(O)C2OC12 (stereo partly specified) [AMPHIDINOLIDE N]
IC50 (L1210): 0.05 ng/mL (≈ 0.0778 nM)

Structure (SMILES): COCC(C(=O)O[C@@H]1C/C=C/C=C/C(=O)O[C@H]([C@@H](C)[C@@H](O)[C@@H](C)CC[C@@H](OC(=O)C(C)N(C)C)[C@H](C)[C@H](OC(C)=O)[C@H](C)/C=C/N(C)C=O)C/C=C/[C@H](OC)C[C@H](C)C/C=C(\C)[C@@H](OC)CC[C@@H](C)[C@@H](O)[C@@H]1C)N(C)C (stereo partly specified) [APLYRONINE A]
T/C (P388 [5]): 545%
T/C [6]: 398%
T/C (Colon 26): 255%
T/C (B16 [7]): 201%
T/C [8]: 556%

Structure (SMILES): CO/C(=C\C(=O)N(C)[C@@H](Cc1ccccc1)c1nccs1)C[C@H](C)C(Cl)(Cl)Cl [BARBARAMIDE A]
LC50 [9]: < 100000 ng/mL

IC50 [1]: 1000 µM
Structure (SMILES): O=C1NCCc2cc(Br)c(O)c(c2)Oc2ccc(cc2Br)[C@H](O)CNC(=O)/C(=N/O)Cc2cc(Br)c(O)c(c2)Oc2c(Br)cc(cc2Br)C/C1=N\O [BASTADIN 8]

IC50 [1]: 1000 µM
Structure (SMILES): CC1=C(O)/C(=C/C(C)CCCC(C)/C=C/C=C(\C)CCCc2ccoc2)OC1=O (stereo unspecified) [FASCICULATIN]

Structure (SMILES): C=C(CCNC(=O)CC/C=C/C[C@H](CCCCCCC)OC)[C@@]12O[C@@H]1CC=C(C)C2=O [MALYNGAMIDE H]
LC50 [10]: 25000 ng/mL (≈ 57900 nM)

Structure (SMILES): C[C@@H]1[C@@]2(CC[C@](C)(O)CO2)O[C@H]2C=C3[C@@H]4[C@@H](O)C[C@H]5Cc6nc7c(nc6C[C@]5(C)[C@H]4C[C@@H](O)[C@]3(C)[C@]21O)C[C@@H]1CC[C@@H]2[C@H](CC(=O)[C@]23C[C@@H]2O[C@@]4(CCC(C)(C)O4)[C@@H](C)[C@@H]2[C@]3(C)O)[C@@]1(C)C7 [RITTERAZINE A]
IC50 (P388 [11]): 0.018 ng/mL (≈ 0.0197 nM)

Structure (SMILES): COc1cc2c(cc1O)CCN[C@]21CS[C@@H]2c3c(OC(C)=O)c(C)c4c(c3[C@H](COC1=O)N1[C@@H]2[C@H]2c3c(cc(C)c(OC)c3O)C[C@@H]([C@@H]1O)N2C)OCO4 [TRABECTEDIN]
T/C (M5076): 210%
T/C [2]: 0%
T/C (B16 [3]): 241%
T/C (P388 [4]): 213%
